According to patent publication US20190038556A1, “FORMULATIONS AND CARRIER SYSTEMS INCLUDING COMPOUND INTERACTIVE DOMAINS” (University of Pittsburgh - Of The Commonwealth System of …, priority 2012, published 2019):
Values after ≈ are worked out from the molar mass of the structure shown. Like-named read-outs stand apart in the source and are kept apart here.

Legend:
[1] = Screening of protected amino acid derivatives as solubilizers and inhibitor of crystallization for JP4-039; type: physicochemical
Protocol: In several studies, we compared a group of ε-Boc-lysine derivatives bearing various modifying groups on the α-NH2 position. […] FIG. 1 illustrates structures of various amino acid derivatives studied in solubility studies of JP4-039 in Table 3. […] In Table 3, the followings designations are used: U—Initially soluble but unstable after 5 min; V—forming vesicles; I—insoluble; and S—soluble.
1(b). Screening of protected amino acid derivatives as solubilizers and inhibitor of crystallization for JP4-039. α-acetyl-ε-Boc-lysine, α-iso-butoxycarbamoyl-ε-Boc-lysine were synthesized from α-NH2-ε-Boc-lysine (1 mmole) dissolved in 5 mL of saturated sodium bicarbonate solution by adding a 4-fold excess of acetyl anhydride or isobutyl chloroformate dissolved in 5 mL of THF over a period of 5 minutes, respectively. THF was removed from the reaction mixture, the remaining mixture was diluted with 50 mL of ethyl acetate. The organic phase was washed with 20 mL of saturated NaHCO3, saline, citric acid (0.5 M) and water sequentially. The organic phase was dried over anhydrous sodium sulfate, and the solvent was removed. The solid residues were recrystallized from ethyl acetate/hexanes mixture. These derivatives, together with a panel of commercially available amine protected derivatives of lysine, phenylalanine, and glycine were prepared as 1-100 mM solution or suspension in 0.1 M Na2HPO4 buffer. Meanwhile, 0.447 μg of JP4-039 dissolved in 5 μL of methanol was added to each well of a 96-well polystyrene plate. One hundred μL of amino acid solution/suspension were added to the methanol solution and mixed well. The physical status of the samples in each well was inspected visually for the physical appearance of brown crystals periodically over 2 h. Some samples were photographed under a microscope after 20 min.

[2] = for Physical form on hydration: 1 mg at 1 mg/ml
Source text: Additional representative studies of paclitaxel PTX loaded onto a carrier agent including only a hydrophilic segment, region or domain conjugated to a drug-interactive segment, region or domain are set forth below.

[3] = Critical micelle concentration (Eosin Y red shift); type: physicochemical
Protocol: 1(d). Critical micelle concentration (CMC). CMC was determined based on the red shift of the maximal absorption of Eosin Y when incorporated into more hydrophobic microenvironment in the core of micelle. Eosin Y solution was added to a final concentration of 1 mM to a series of surfactant solution prepared in distilled water and incubated for 30 minute at room temperature. OD542 nm was measured and plotted against surfactant concentration from which CMC values were estimated.

[4] = PTX loading and formulation stability of PTX/PEG-Fmoc2 mixed micelles (HPLC); type: physicochemical
Source text: DLC (%)=[weight of drug used/(weight of polymer+drug used)]×100%
DLE (%)=(weight of loaded drug/weight of input drug)×100%
2(b)(iv). Preparation and biophysical characterization of PTX/PEG-Fmoc2 mixed micelles. Thin-film hydration method was utilized for preparation of PTX/PEG-Fmoc2 mixed nanomicelles. PEG-Fmoc2 and PTX in chloroform were well mixed in a glass tube at designated molar ratios. A thin film of carrier/drug mixture was generated through removal of the organic solvent by a gentle stream of nitrogen. The trace amount of solvent was further removed via vacuum for 2 h. Then the film was hydrated and suspended in DPBS by vortex to obtain a clear solution of PTX/PEG-Fmoc2 mixed nanomicelles. […]
The size distribution of PTX/PEG-Fmoc2 mixed nanomicelles was examined by dynamic light scattering (DLS) via a Malvern Zeta Nanosizer, and the morphology was observed by transmission electron microscopy (TEM) after negative staining. The CMC measurement was performed as reported before with pyrene as a fluorescence probe. To quantify PTX in the micelles, PTX was extracted by methanol, and detected by Waters Alliance 2695-2998 high-performance liquid chromatography (HPLC) system with a RP-18 column (250 mm×4.6 mm) equipped with a UV detector at 227 nm at room temperature. […] The drug loading capacity (DLC) and efficiency (DLE) were calculated as set forth above.

[5] = Particle size measurement by laser dynamic light scattering; type: physicochemical; conditions: for Particle Sizes w/o JP4-039: empty micelles; for Size +/− SD: agent formulated with multi-chain PEGylated micelle-forming surfactant
Protocol: 1(f). Particle size measurement. […] Samples were further diluted ten times in distilled water and sizes were measured by laser dynamic light scattering using a particle sizer (Zetasizer Nano ZS instrument, available from Malvern Instruments Ltd of Worcestershire, United Kingdom). Size measurement of emulsion particles were conducted using a Coulter N4 particle sizer after a 100-fold dilution in saline.

physchem = test: physchem
Source text: The exact mechanism for the protection of ECGC against oxygen in the form of complex is unknown.

[6] = carrier Methoxy-PEG550-α-Fmoc-lysyl-ε-oleylamide (20 mg/ml)
[7] = aqueous with cosolvent or surfactant or cyclodextrin

Row | Molecule | Solubility status of JP4-039 with amino acid derivative ([1]; molar ratio 5) | Solubility status of JP4-039 with amino acid derivative ([1]; molar ratio 10) | Solubility status of JP4-039 with amino acid derivative ([1]; molar ratio 20) | Solubility status of JP4-039 with amino acid derivative ([1]; molar ratio 30) | Solubility status of JP4-039 with amino acid derivative ([1]; molar ratio 40) | Solubility status of JP4-039 with amino acid derivative ([1]; molar ratio 50) | also measured
1 | O=C(O)CCNC(=O)OCc1ccccc1 [Cbz-β-Ala-OH] | I | I | I | I | I | I | 
2 | COc1ccc2c(c1)c(CC(=O)O)c(C)n2C(=O)c1ccc(Cl)cc1 [Indomethacin] |  |  |  |  |  |  | Physical form on hydration [2, 6]: micelle solution
3 | Monomethoxy PEG2,000-α-Fmoc-ε-Oleoyl Lysine [lipopeptide 1] |  |  |  |  |  |  | CMC [3]: 5.0 µM
4 | PEG5000-lysyl-(α-Fmoc-ε-oleic acid-lysine)2 [PEG-Fmoc-OA] |  |  |  |  |  |  | Stability in solution at maximum PTX loading [4]: several hours; PTX loading capacity (maximum) ([4]; w/w, stable complexes in aqueous solution): 15%
5 | Monomethoxy PEG5,000-lysyl-[lysyl-(α-Fmoc-ε-oleoyl lysine)2]2 [lipopeptide 4] |  |  |  |  |  |  | Particle Sizes w/o JP4-039 [5]: 132.1 +/− 8.5 nm; CMC [3]: 3.4 µM
6 | Isb-(Cbz)-Lys-OH | I | S | S | S | S | S | 
7 | CC(C)c1onc(-c2c(Cl)cccc2Cl)c1COc1ccc(/C=C/c2cccc(C(=O)O)c2)c(Cl)c1 [GW4064] |  |  |  |  |  |  | Size +/− SD [5]: 35.4 +/− 12 nm; Drug:carrier mole ratio (physchem): 2:1 to 1:1; Soluble at (physchem): >5 mg/mL; solubility (physchem): 0.002 µg/mL (≈ 0.00368 µM)
8 | CC(C)(C)OC(=O)NCCCC[C@H](NC(=O)OCC1c2ccccc2-c2ccccc21)C(=O)O [Fmoc-(tBoc)-Lys-OH, α-Fmoc-ε-tBoc-lysine] | S | S | S | S | S | S | Measured diameters of the majority of particles ([5]; prepared in 0.1 M KHCO3): 2-5 nm
9 | CC(C)(C)OC(=O)NCCCC[C@H](NC(=O)OCc1ccccc1)C(=O)O [Cbz-(tBoc)-Lys-OH] | I | I | I | I | S | S | 
10 | O=C(N[C@@H](Cc1ccccc1)C(=O)O)c1ccccc1 [Benz-Phe-OH] | I |  |  |  |  | S | 
11 | O=C(NCCCC[C@H](NC(=O)OCc1ccccc1)C(=O)O)OCc1ccccc1 [Di-(Cbz)-Lys-OH] | I | I | S | S | S | S | 
12 | C=CC[C@@H]1/C=C(\C)C[C@H](C)C[C@H](OC)[C@H]2O[C@@](O)(C(=O)C(=O)N3CCCC[C@H]3C(=O)O[C@H](/C(C)=C/[C@@H]3CC[C@@H](O)[C@H](OC)C3)[C@H](C)[C@@H](O)CC1=O)[C@H](C)C[C@@H]2OC [FK506, tacrolimus] |  |  |  |  |  |  | Size +/− SD [5]: 62.3 +/− 9 nm; Drug:carrier mole ratio (physchem): 1:1 to 1:1.5; solubility (physchem; [7]): 2500 µg/mL (≈ 3110 µM)
13 | CC/C(=C(\c1ccccc1)c1ccc(OCCN(C)C)cc1)c1ccccc1 [Tamoxifen] |  |  |  |  |  |  | Stability of suspension upon hydration [2]: ~1 h; Physical form on hydration [2, 6]: micelle solution
14 | Monomethoxy PEG2,000-lysyl-(α-Fmoc-ε-oleoyl lysine)2 [lipopeptide 3] |  |  |  |  |  |  | Particle Sizes w/JP4-039 ([5]; JP4-039 loaded micelles): 94.2 +/− 1.7 nm; Particle Sizes w/o JP4-039 [5]: 106.7 +/− 2.5 nm; CMC [3]: 4.2 µM
15 | C=CC1=C(C)c2cc3[nH]c(cc4nc(cc5[nH]c(cc1n2)c(C)c5CCC(=O)O)C(CCC(=O)O)=C4C)c(C)c3C=C [protoporphyrin IX] |  |  |  |  |  |  | Drug:carrier mole ratio (physchem): 1:6 to 1:10; solubility (physchem): ~1 µg/mL (≈ 1.78 µM); solubility (physchem; [7]): 500 µg/mL (≈ 889 µM)
16 | COc1cc(/C=C/C(=O)CC(=O)/C=C/c2ccc(O)c(OC)c2)ccc1O [Curcumin] |  |  |  |  |  |  | Stability of suspension upon hydration [2]: ~1 h; Physical form on hydration [2, 6]: micelle solution; Physical form on hydration ([2]; carrier Methoxy-PEG1000-α-Fmoc-lysyl-ε-(α-Fmoc-ε-Boc lysine), 20 mg/ml): 1 mg at 1 mg/ml, viscous gel; Physical form on hydration ([2]; carrier Methoxy-PEG1000-α-Fmoc-lysyl-ε-(α-Fmoc-ε-Boc lysine), 20 mg/ml, listed as curcumin): suspension
17 | CC(C)(C)OC(=O)N[C@@H](CCCCNC(=O)OCc1ccccc1)C(=O)O [tBoc-(Cbz)-Lys-OH] | I | I | I | I | I | S | 
18 | CC(=O)NCCCC[C@H](NC(=O)OCc1ccccc1)C(=O)O [CBz-(Ace)-Lys-OH] | I | I | I | I | I | S | 
19 | O=C([O-])c1c(Cl)c(Cl)c(Cl)c(Cl)c1-c1c2cc(I)c(=O)c(I)c-2oc2c(I)c([O-])c(I)cc12.[Na+].[Na+] [Rose Bengal] |  |  |  |  |  |  | Size +/− SD [5]: 101.6 +/− 7 nm; Drug:carrier mole ratio (physchem): 2.5:1 to 2:1^; Soluble at (physchem): >5 mg/mL; solubility (physchem): freely
20 | CC(=O)N[C@@H](CCCCNC(=O)OCc1ccccc1)C(=O)O [Ace-(Cbz)-Lys-OH] | I | I | I | I | I | S | 
